Measurements taken from patent publication US20160264570A1, “METHOD OF BLOCKING TRANSMISSION OF MALARIAL PARASITE” (THE UNITED STATES OF AMERICA, AS REPRESENTED BY THE …, priority 2013, published 2016).
Where two headings read alike, the source gives them in different places. Starred links: 1 amine or outer side, 2 acyl side, 3 side chain; linkers in the order of their positions; H or OH if unused. Positions of bridges follow the written chain, without caps; N, C: chain ends. Non-standard residues stand in square brackets, D forms with d. Residues, ends and D or L forms follow the SMILES beside them. Chains are numbered I, II in the order given. Actinocin(9to1) = Cc1c2oc3c(C)ccc(C(=O)[*:1])c3nc-2c(C(=O)[*:2])c(N)c1=O; NMeV = CN[C@H](C(=O)O)C(C)C; Sar = CNCC(=O)O

Assays:
[1] = tested on: P. falciparum strain 3D7 gametocytes; assay: alamarBlue gametocyte viability assay, strain 3D7
[2] = tested on: P. falciparum strain HB3 gametocytes; assay: alamarBlue gametocyte viability assay, strain HB3
HepG2 cells = assay: Cytotoxicity in mammalian HepG2 cell line; settings: for % Max response: HepG2
[3] = tested on: P. falciparum strain Dd2 gametocytes; assay: alamarBlue gametocyte viability assay, strain Dd2
Plasmodium berghei ANKA = assay: Malaria mouse model of gametocyte transmission to mosquitoes (oocyst count); assay type: in vivo; settings: mice, Anopheles stephensi
[4] = tested on: Asexual parasites of P. falciparum strain 3D7; assay: SYBR Green viability assay on asexual parasites; assay type: cell-based, Plasmodium falciparum; settings: read-out: IC50 in viability assay using asexual parasites
Dd2 asexual parasites = settings: compared to 3D7; ref [27]; cited from earlier work
[5] = read-out: 3D7-IC50, Table 3, 11 concentrations, 1:3 dilution, three times
[6] = read-out: Gametocyte IC50, mean of at least 3 independent experiments, P. falciparum 3D7 gametocyte
[7] = read-out: HB3-IC50, Table 3, 11 concentrations, 1:3 dilution, three times
[8] = Table 2, Inactive = no significant activity at highest tested concentration (46 μM)
[9] = Table 4, Inactive = no significant activity at highest tested concentration (46 μM)
[10] = read-out: Dd2-IC50, Table 3, 11 concentrations, 1:3 dilution, three times
[11] = read-out: IC50 (μM) in HepG2, Table 2, Inactive = no significant activity at highest tested concentration (46 μM)
[12] = read-out: IC50 (μM) in HepG2 cells, Table 4, Inactive = no significant activity at highest tested concentration (46 μM)
[13] = Plasmodium falciparum, HB3, read-out: HB3-IC50
[14] = Plasmodium falciparum, 3D7, read-out: 3D7-IC50
[15] = Plasmodium falciparum, DD2, read-out: IC50 against Dd2 gametocytes
[16] = Plasmodium falciparum, HB3, read-out: IC50 against HB3 gametocytes
[17] = Homo sapiens, HepG2, read-out: IC50 (μM) in HepG2 cells

Row | Molecule | IC50 [1, 5] | IC50 [1, 6] | IC50 [2, 7] | % Max response (HepG2 cells; Table 2) | % Max response (HepG2 cells; Table 4) | IC50 [3, 10] | also measured
1 | CCN(CCO)CCCOc1ccc2c(Nc3cc(CC(=O)Nc4cccc(F)c4)[nH]n3)ncnc2c1 [AZD-1152-HQPA] | 743 nM | 743 nM | 1480 nM | 11% | 11% | 1480 nM | IC50 (μM) in HepG2 (HepG2 cells; [8]): Inactive; IC50 (μM) in HepG2 cells (HepG2 cells; [9]): Inactive
2 | CC(=O)OC[C@H]1O[C@@H]([S-])[C@H](OC(C)=O)[C@@H](OC(C)=O)[C@@H]1OC(C)=O.CCP(CC)CC.[Au+] [Auranofin] | 935 nM | 935 nM | 1050 nM | −98% | −98% | 1180 nM | IC50 (HepG2 cells; [11]): 9.35 µM; IC50 (HepG2 cells; [12]): 9.35 µM
3 | CC1(C)OC2=C(C(=O)c3ccccc3C2=O)[C@H](NCc2ccccc2)[C@@H]1O [CAY10581] | 743 nM | 743 nM | 662 nM | −86% | −86% | 2350 nM | IC50 (HepG2 cells; [11]): 17.1 µM; IC50 (HepG2 cells; [12]): 17.1 µM
4 | Cc1cc(NC2CCCCC2)nc(-n2nc(C)cc2C)n1 [CyPPA] | 469 nM |  | 743 nM |  |  | 590 nM | 
5 | Cc1c2oc3c(C)ccc(C(=O)N[C@@H]4C(=O)N[C@H](C(C)C)C(=O)N5CCC[C@H]5C(=O)N(C)CC(=O)N(C)[C@@H](C(C)C)C(=O)O[C@@H]4C)c3nc-2c(C(=O)N[C@@H]2C(=O)N[C@H](C(C)C)C(=O)N3CCC[C@H]3C(=O)N(C)CC(=O)N(C)[C@@H](C(C)C)C(=O)O[C@@H]2C)c(N)c1=O [Dactinomycin] (I: T[dV]P[Sar][NMeV] / II: T[dV]P[Sar][NMeV]; ester I:1-I:C, II:1-II:C; linker I:N-II:N via Actinocin(9to1)) |  |  |  |  |  |  | IC50 ([1]; Plasmodium falciparum, 3D7, read-out: Gametocyte IC50): 15 nM; IC50 [2, 13]: 19 nM; Emax (HepG2 cells; Homo sapiens, HepG2, read-out: % Max response): 1%; IC50 (μM) in HepG2 (HepG2 cells; [8]): Inactive; IC50 (μM) in HepG2 cells (HepG2 cells; [9]): Inactive; IC50 ([3]; Plasmodium falciparum, DD2, read-out: Dd2-IC50): 33 nM
6 | S=C(SSC(=S)N1CCCCC1)N1CCCCC1 [Dicyclopentamethylenethiuram] | 200 nM |  | 743 nM |  |  | 743 nM | 
7 | COc1ncc(-c2ccc3nccc(-c4ccnnc4)c3c2)cc1NS(=O)(=O)c1ccc(F)cc1F [GSK-458] | 935 nM | 935 nM | 332 nM | 33% | 33% | 1480 nM | IC50 (μM) in HepG2 (HepG2 cells; [8]): Inactive; IC50 (μM) in HepG2 cells (HepG2 cells; [9]): Inactive
8 | CN(C)c1ccc2nc3ccc(=[N+](C)C)cc-3sc2c1 [Methylene blue] |  |  |  |  | −20% |  | IC50 [1, 14]: 300 nM; IC50 [2, 13]: 935 nM; IC50 (μM) in HepG2 cells (HepG2 cells; [9]): Inactive; IC50 ([3]; Plasmodium falciparum, DD2, read-out: Dd2-IC50, Table 3, 11 concentrations, 1:3 dilution, three times): 526 nM; IC50 [3, 15]: 526 nM
9 | Cc1[nH]c2ccccc2c1CCNCc1ccc(/C=C/C(=O)NO)cc1 [Panobinostat] |  |  |  |  | −74% |  | IC50 [1, 14]: 900 nM; IC50 [2, 16]: 118 nM; fold more potent against HB3 compared to 3D7 ([2]; gametocytes): 7.9 fold; IC50 (HepG2 cells; [17]): 0.372 µM; IC50 [3, 15]: 148 nM; times more potent against Dd2 compared to 3D7 ([3]; gametocytes): 6.3 times
10 | COc1cc(NC(C)CCCN)c2ncccc2c1 (stereo not drawn) [Primaquine, primaquine] |  |  |  |  |  |  | IC50 [2, 16]: 680 nM; IC50 (HepG2 cells; [17]): 17.8 µM; IC50 [3, 15]: 1080 nM
11 | C=CC1CN2CCC1CC2C(O)c1ccnc2ccc(OC)cc12.C=CC1CN2CCC1CC2C(O)c1ccnc2ccc(OC)cc12.O=S(=O)(O)O (stereo not drawn) [Quinine hemisulfate] | 300 nM | 345 nM | 235 nM | 2% | 2% | 83 nM | IC50 (μM) in HepG2 (HepG2 cells; [8]): Inactive; IC50 (μM) in HepG2 cells (HepG2 cells; [9]): Inactive
12 | Cl.Cl.Cl.Cl.Cl.Cl.N.N.N.N.N.N.N.N.N.N.N.N.N.N.[O-2].[O-2].[Ru+3].[Ru+3].[Ru+4] [Ruthenium red] | 935 nM |  | 264 nM |  |  | 526 nM | 
13 | CC[C@@H](C(=O)[C@@H](C)[C@@H](O)[C@H](C)[C@@H]1O[C@@H]([C@@H](CC)C(=O)O)CC[C@@H]1C)[C@H]1O[C@]2(C=C[C@@H](O)[C@]3(CC[C@@](C)([C@H]4CC[C@](O)(CC)[C@H](C)O4)O3)O2)[C@H](C)C[C@@H]1C [Salinomycin monosodium] | 100 nM |  | 469 nM |  |  | 296 nM | 
14 | Nc1ccc(-c2ccc3ncc4ccc(=O)n(-c5cccc(C(F)(F)F)c5)c4c3c2)cn1 [Torin 2] |  | 8 nM | 15 nM | −46% | −46% | 12 nM | oocyst production in mosquitoes (Plasmodium berghei ANKA; single 4 mg/kg dose i.v.): almost completely eliminated; oocyst production in mosquitoes (Plasmodium berghei ANKA; single dose of 2 mg/kg i.v.): significantly reduced; oocyst production in mosquitoes (Plasmodium berghei ANKA; two 4 mg/kg doses i.v.): completely blocked; cytotoxicity in HepG2 cells (HepG2 cells; at the highest tested concentration (46 μM)): partial cytotoxicity; IC50 (HepG2 cells; [11]): 9.35 µM; IC50 (HepG2 cells; [12]): 9.35 µM; IC50 [4]: 2.75 nM
15 | CCC(=O)N1CCN(c2ccc(-n3c(=O)ccc4cnc5ccc(-c6cnc7ccccc7c6)cc5c43)cc2C(F)(F)F)CC1 [Torin-1] | 6620 nM |  | 3720 nM |  |  | 5260 nM | 
16 | CC1=C(CO)C(=O)O[C@@H]([C@@H](C)[C@H]2CC[C@H]3[C@@H]4C[C@H]5O[C@]56[C@@H](O)C=CC(=O)[C@]6(C)[C@H]4CC[C@]23C)C1 [Withaferin A] | 300 nM | 372 nM | 1330 nM | −80% | −80% | 372 nM | IC50 (HepG2 cells; [11]): 9.35 µM; IC50 (HepG2 cells; [12]): 9.35 µM
17 | CCN(CC)CCCC(C)Nc1ccnc2cc(Cl)ccc12 (stereo not drawn) [chloroquine] |  |  |  |  |  |  | fold less potent against Dd2 asexual parasites (Dd2 asexual parasites): 10 fold; reduction of potency against Dd2 gametocytes compared to 3D7 [3]: 3.7 fold
18 | Monensin sodium | 200 nM | 254 nM | 264 nM | 40% | 40% | 372 nM | IC50 (μM) in HepG2 (HepG2 cells): Inactive; IC50 (μM) in HepG2 cells (HepG2 cells): Inactive
19 | Zinc pyrithione |  | 93 nM | 59 nM | −99% | −99% | 59 nM | IC50 (HepG2 cells; [11]): 2.15 µM; IC50 (HepG2 cells; [12]): 2.15 µM
